EPA's ToxValDB 9.5 (doi:10.2903/j.efsa.2010.1876)
In brackets after ≈: the same amount, converted by molar mass. Several values for one entry are separate records, joined by “and”; a condition that tells them apart may be missing. Equal values may be shown once.

Tests used:
[1] = test system: Rattus norvegicus
[2] = test system: Typhlodromus pyri; assay: LR50; higher = less toxic; conditions: not reported; mortality
[3] = test system: Apis mellifera; conditions: acute; duration: 48 hours; oral; unspecified; mortality
[4] = test system: Oncorhynchus mykiss; conditions: chronic/long-term; duration: 28 days; growth
[5] = test system: Lepomis macrochirus; conditions: acute; duration: 96 hours; mortality
[6] = test system: Anas platyrhynchos; conditions: reproductive
[7] = test system: Tagia sp.
[8] = test system: Daphnia magna; conditions: chronic/long-term; duration: 22 days; reproduction
[9] = test system: Colinus virginianus; conditions: acute; oral; diet; mortality
[10] = test system: Coturnix japonica; conditions: acute; oral; mortality
[11] = test system: Mus musculus; conditions: acute; oral; mortality

| SMILES | NOAEL ([1]; reproduction developmental) | LR50 [2] [g/ha] | LD50 [3] [µg/piece] | NOEC [4] [mg/L] | LC50 [5] [µg/mL] | NOEC [6] [mg/kg-day] | LC50 ([7]; acute, mortality) [mg/kg] | NOEC ([7]; chronic/long-term, duration: 56 days) [mg/kg] | NOEC [8] [mg/L] | LC50 [9] [mg/kg-day] | NOAEL ([1]; chronic, duration: 2 years, clinical chemistry) [mg/kg-day] | NOAEL ([1]; developmental, development) [mg/kg-day] | LD50 [10] [mg/kg] | LD50 [11] [mg/kg] |
| --- | --- | --- | --- | --- | --- | --- | --- | --- | --- | --- | --- | --- | --- | --- |
| c1nc[nH]n1 [1H-1,2,4-Triazole] | 17 mg/kg-day and 30 mg/kg-day | – | – | – | – | – | – | – | – | – | – | – | – | – |
| CC(C)(C)[C@H](O)[C@H](Cc1ccc(Cl)cc1)n1cncn1 (racemic) [Paclobutrazol] | – | > 1000 | > 2 | 3.3 | 23.6 (≈ 80.3 µM) | 119 | > 1000 | 1.69 | 0.32 | > 2790 | 2.2 | 10 | > 2100 | 490 |
| NC(Cc1ncn[nH]1)C(=O)O (stereo not given) [1,2,4-Triazole-3-alanine] | – | – | – | – | – | – | – | – | – | – | – | 100 | – | – |
